# Experimental data taken from PMC5391474, “Investigation of the Role of Protein Kinase D in Human Rhinovirus Replication” (Journal of Virology, 2017).
# What was measured:
# Assay in all cases: biochemical
# Design in all cases: in vitro kinase selectivity panel, protein and lipid kinases, single concentration, ATP at Km
# Conditions in all cases: ATP at Km
# [1] = biological target: CDK1/cyclinB(h) (Homo sapiens, UniProt P06493)
# Experimental: (§1) CRT0066101 was described previously ([48]) and was purchased for this study from Tocris, with a purity of 99.9%. CRT0066101 (XX-209) and compound XX-050 were synthesized as previously described ([68]). CRT0066051 (Y-095) was also synthesized as previously described ([69]). […] CRT0066101 can also be obtained in larger quantities from Ximbio. Inhibitors were tested in in vitro PKD kinase assays and cellular assays on PANC1 cells as previously described ([48]). The selectivity of the three PKD inhibitors was determined against a panel of protein and lipid kinases by Eurofins and the MRC PPU International Centre for Kinase Profiling (http://www.kinase-screen.mrc.ac.uk), respectively. Each inhibitor was tested at a single concentration of 1 μM and at an ATP concentration equivalent to the Km for each kinase. Having shown that HRV infection appears to activate PKD, we went on to explore the influence of chemical inhibitors of PKD on HRV replication. The compound CRT0066101 is a specific and potent PKD inhibitor that has been used in studies exploring its potential as an anticancer target ([48], [51]). This inhibitor has a 50% inhibitory concentration (IC50) of 1 nM against purified PKD in biochemical assays and a 50% effective concentration (EC50) of 1 μM in a cell-based assay (Table 1). We pretreated HeLa cells with increasing concentrations of the drug for 1 h followed by infection with HRV16. Viral replication was subsequently measured at 6 hpi by quantitative real-time PCR (qRT-PCR) (Fig. 2A) and by Western blotting using an antibody against the viral nonstructural protein 2C (Fig. 2B). […] Furthermore, we tested two novel and structurally different PKD inhibitors (CRT0066051 and XX-050) (Table 1) and confirmed that they too inhibited HRV 2C expression although with different potencies (Fig. 2D). Kinase selectivity profiling of all three PKD inhibitors was performed against a panel of protein and lipid kinases at a drug concentration of 1 μM and at an ATP concentration equivalent to the Km of each kinase (see Table S1 in the supplemental material). […] Since PKD is known to be involved in regulating the architecture of the Golgi apparatus, we confirmed the pharmacodynamic effect of these inhibitors by demon
# [2] = biological target: EGFR(h) (Homo sapiens, UniProt P00533)
# Experimental: as §1
# [3] = biological target: T1, Abl(h) (Homo sapiens, UniProt P00519)
# T1 construct: gene ABL1
# T1 sequence (P00519 whole entry): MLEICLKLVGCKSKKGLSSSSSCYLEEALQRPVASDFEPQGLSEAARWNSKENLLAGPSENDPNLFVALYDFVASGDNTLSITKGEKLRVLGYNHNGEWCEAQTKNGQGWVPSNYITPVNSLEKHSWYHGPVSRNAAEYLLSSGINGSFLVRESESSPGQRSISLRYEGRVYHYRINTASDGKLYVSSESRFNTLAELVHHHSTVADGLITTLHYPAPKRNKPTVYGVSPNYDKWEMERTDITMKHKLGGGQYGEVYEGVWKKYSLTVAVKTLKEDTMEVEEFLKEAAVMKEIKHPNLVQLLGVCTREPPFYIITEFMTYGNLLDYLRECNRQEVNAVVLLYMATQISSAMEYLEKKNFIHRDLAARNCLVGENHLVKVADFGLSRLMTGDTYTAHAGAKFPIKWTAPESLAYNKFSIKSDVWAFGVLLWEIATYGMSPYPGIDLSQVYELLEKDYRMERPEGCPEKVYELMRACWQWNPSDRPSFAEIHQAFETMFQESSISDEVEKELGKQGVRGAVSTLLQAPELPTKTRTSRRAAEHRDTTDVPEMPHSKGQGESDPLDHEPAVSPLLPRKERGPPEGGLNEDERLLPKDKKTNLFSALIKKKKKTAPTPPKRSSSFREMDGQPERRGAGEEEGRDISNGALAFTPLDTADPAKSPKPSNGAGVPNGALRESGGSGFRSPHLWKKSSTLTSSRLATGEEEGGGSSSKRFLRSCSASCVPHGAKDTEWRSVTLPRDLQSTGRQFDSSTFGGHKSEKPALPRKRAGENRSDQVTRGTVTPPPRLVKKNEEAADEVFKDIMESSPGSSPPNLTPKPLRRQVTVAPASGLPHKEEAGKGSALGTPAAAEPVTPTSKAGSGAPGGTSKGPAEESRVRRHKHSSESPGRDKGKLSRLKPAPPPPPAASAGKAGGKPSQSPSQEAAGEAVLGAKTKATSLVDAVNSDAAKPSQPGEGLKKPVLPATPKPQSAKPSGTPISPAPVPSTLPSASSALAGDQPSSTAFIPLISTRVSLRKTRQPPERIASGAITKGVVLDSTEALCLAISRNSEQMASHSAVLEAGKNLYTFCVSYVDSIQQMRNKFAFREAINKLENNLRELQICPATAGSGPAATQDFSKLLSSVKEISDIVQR
# Experimental: as §1
# [4] = biological target: T2, PIK3CG / p85 (h) (Homo sapiens, UniProt P48736)
# T2 construct: p110gamma/p85 as printed
# Experimental: as §1
# [5] = biological target: Flt3(h) (Homo sapiens, UniProt P36888)
# Chain of Flt3(h) (P36888 whole entry): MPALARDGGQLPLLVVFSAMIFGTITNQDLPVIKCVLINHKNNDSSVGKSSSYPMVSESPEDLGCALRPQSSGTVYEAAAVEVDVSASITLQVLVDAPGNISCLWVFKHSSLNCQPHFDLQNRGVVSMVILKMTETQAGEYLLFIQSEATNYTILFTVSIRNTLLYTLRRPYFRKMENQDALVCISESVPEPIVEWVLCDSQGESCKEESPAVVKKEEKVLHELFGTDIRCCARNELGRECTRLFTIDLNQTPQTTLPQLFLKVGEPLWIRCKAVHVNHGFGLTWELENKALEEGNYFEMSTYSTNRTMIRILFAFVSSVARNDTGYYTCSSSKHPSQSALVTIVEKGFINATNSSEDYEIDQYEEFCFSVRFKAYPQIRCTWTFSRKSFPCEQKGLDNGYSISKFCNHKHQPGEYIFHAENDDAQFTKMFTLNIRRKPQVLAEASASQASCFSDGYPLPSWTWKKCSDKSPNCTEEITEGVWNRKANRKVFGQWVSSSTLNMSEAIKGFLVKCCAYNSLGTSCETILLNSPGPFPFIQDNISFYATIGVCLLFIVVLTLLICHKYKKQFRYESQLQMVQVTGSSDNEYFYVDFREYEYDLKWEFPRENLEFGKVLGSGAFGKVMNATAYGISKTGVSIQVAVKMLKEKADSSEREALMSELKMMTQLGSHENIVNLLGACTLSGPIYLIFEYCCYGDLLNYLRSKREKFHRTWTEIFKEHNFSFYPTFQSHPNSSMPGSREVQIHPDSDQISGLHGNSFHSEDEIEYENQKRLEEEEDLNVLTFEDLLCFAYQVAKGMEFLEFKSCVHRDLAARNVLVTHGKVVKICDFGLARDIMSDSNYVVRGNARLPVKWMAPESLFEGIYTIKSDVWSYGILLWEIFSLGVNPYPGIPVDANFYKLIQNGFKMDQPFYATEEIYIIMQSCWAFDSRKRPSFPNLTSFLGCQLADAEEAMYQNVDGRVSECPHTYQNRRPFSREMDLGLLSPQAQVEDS
# Experimental: as §1
# [6] = biological target: T3, Aurora-A(h) (Homo sapiens, UniProt O14965)
# T3 construct: gene AURKA
# T3 sequence (O14965 whole entry): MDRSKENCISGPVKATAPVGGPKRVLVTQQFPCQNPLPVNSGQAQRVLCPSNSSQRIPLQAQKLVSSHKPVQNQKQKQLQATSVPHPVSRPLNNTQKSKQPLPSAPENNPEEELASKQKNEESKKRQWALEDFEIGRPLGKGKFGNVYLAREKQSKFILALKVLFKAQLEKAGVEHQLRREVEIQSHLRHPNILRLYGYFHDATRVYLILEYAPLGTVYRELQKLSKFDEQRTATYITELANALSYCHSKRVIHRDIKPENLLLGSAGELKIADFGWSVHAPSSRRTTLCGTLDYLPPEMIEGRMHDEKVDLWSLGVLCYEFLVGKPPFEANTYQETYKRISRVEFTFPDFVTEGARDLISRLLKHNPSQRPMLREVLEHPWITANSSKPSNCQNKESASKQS
# Experimental: as §1
# [7] = biological target: T4, MEK1(h) (Homo sapiens, UniProt Q02750)
# T4 construct: gene MAP2K1
# T4 sequence (Q02750 whole entry): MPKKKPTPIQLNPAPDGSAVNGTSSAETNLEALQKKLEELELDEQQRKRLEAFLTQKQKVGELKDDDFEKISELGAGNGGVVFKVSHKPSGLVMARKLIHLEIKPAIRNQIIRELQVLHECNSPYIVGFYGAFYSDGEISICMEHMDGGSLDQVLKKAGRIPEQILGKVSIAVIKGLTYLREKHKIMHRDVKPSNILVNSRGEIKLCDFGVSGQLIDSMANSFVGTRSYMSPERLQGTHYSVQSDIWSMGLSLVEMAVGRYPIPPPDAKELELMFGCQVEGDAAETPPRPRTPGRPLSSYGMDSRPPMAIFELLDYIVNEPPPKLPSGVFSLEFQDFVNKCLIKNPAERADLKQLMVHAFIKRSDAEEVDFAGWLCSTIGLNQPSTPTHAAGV
# Experimental: as §1
# [8] = biological target: T5, IKKα(h) (Homo sapiens, UniProt O15111)
# T5 construct: gene CHUK
# Experimental: as §1
# [9] = biological target: T6, CHK1(h) (Homo sapiens, UniProt O14757)
# T6 construct: gene CHEK1
# Experimental: as §1
# [10] = biological target: T7, p70S6K(h) (Homo sapiens, UniProt P23443)
# T7 construct: gene RPS6KB1
# Experimental: as §1
# [11] = biological target: HIPK1(h) (Homo sapiens, UniProt Q86Z02)
# Experimental: as §1
# [12] = biological target: T8, TrkA(h) (Homo sapiens, UniProt P04629)
# T8 construct: gene NTRK1
# Experimental: as §1
# [13] = biological target: Fes(h) (Homo sapiens, UniProt P07332)
# Chain of Fes(h) (P07332 whole entry): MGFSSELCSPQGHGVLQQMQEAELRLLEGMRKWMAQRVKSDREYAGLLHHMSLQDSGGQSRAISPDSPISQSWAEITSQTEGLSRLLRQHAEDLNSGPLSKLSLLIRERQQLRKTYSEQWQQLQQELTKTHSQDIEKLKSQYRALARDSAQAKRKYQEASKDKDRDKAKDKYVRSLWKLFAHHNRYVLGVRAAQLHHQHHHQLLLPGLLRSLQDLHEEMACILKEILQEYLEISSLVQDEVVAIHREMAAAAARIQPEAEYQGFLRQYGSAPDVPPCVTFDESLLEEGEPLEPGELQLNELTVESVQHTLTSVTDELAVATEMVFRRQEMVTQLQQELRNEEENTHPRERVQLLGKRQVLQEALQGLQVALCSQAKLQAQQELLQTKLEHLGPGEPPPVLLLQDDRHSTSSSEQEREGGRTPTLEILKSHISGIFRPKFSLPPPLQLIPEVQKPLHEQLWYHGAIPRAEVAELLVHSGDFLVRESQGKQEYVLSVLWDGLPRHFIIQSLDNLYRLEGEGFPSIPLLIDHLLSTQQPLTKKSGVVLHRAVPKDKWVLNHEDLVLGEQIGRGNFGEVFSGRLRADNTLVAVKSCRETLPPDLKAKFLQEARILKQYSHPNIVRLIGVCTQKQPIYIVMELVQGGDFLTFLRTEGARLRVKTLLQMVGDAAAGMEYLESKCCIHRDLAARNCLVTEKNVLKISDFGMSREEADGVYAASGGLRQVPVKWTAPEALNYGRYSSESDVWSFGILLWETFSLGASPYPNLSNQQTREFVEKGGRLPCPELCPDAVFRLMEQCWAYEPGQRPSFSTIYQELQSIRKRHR
# Experimental: as §1
# [14] = biological target: T9, TAK1(h) (Homo sapiens, UniProt O43318)
# T9 construct: gene MAP3K7
# Experimental: as §1
# [15] = biological target: T10, c-RAF(h) (Homo sapiens, UniProt P04049)
# T10 construct: gene RAF1
# Experimental: as §1
# [16] = biological target: T11, CaMKI(h) (Homo sapiens, UniProt Q14012)
# T11 construct: gene CAMK1
# Experimental: as §1
# [17] = biological target: EGFR(T790M,L858R)(h) (Homo sapiens, UniProt P00533, L858R/T790M)
# Chain of EGFR(T790M,L858R)(h) (P00533 whole entry T790M/L858R): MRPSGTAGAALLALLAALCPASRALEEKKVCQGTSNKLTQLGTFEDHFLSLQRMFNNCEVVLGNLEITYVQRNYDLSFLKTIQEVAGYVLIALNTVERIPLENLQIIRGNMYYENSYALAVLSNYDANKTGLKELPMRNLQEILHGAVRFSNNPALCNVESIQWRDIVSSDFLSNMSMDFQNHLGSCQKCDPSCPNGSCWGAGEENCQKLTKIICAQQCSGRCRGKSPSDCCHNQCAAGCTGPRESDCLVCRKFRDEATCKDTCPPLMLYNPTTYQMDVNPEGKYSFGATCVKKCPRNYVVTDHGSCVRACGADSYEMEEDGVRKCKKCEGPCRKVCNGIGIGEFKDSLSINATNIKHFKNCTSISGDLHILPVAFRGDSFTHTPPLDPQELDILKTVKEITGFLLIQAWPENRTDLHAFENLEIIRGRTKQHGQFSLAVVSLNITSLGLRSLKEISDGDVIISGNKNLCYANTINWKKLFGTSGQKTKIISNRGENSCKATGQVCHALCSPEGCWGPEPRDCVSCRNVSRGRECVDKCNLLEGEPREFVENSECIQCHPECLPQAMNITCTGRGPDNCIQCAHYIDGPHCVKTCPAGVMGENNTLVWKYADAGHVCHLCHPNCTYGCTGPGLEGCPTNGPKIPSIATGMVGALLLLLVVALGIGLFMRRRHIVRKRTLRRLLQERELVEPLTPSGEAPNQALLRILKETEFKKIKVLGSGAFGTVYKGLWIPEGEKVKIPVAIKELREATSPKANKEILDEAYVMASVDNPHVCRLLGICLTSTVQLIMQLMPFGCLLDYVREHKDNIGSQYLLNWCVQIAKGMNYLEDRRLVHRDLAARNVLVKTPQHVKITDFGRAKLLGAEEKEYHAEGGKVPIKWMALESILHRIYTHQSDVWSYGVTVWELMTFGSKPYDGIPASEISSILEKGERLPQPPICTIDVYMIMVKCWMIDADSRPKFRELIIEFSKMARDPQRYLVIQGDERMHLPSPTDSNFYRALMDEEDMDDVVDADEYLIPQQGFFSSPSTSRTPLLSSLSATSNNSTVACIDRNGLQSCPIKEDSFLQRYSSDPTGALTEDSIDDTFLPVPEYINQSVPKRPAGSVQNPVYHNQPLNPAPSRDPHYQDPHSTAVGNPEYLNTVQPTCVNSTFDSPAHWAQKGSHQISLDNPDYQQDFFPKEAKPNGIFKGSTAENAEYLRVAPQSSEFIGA
# Experimental: as §1
smiles,measurement,setting,value
CC[C@@H](N)CNc1ccnc(-c2cc(-c3cnn(C)c3)ccc2O)n1 [CRT0066101],inhibition at 1 µM,[1],63%
same,inhibition at 1 µM,[2],-6%
same,inhibition at 1 µM,[3],-13%
same,inhibition at 1 µM,[4],-1%
same,inhibition at 1 µM,[5],4%
same,inhibition at 1 µM,[6],-1%
same,inhibition at 1 µM,[7],9%
same,inhibition at 1 µM,[8],66%
same,inhibition at 1 µM,[9],-2%
same,inhibition at 1 µM,[10],31%
same,inhibition at 1 µM,[11],23%
same,inhibition at 1 µM,[12],23%
same,inhibition at 1 µM,[13],-20%
same,inhibition at 1 µM,[14],-6%
same,inhibition at 1 µM,[15],4%
same,inhibition at 1 µM,[16],2%
same,inhibition at 1 µM,[17],-3%
